Data taken from patent US11167015B2, “Arginine and its use as a T cell modulator” (INSTITUTE FOR RESEARCH IN BIOMEDICINE, priority 2016, dated 2021).

Tested on: human naïve CD4+ T cells
Test: T cell proliferation (CellTrace Violet dilution)
Type: cell-based
Description: FIG. 10. […] (A) Kinetics of T cell proliferation. Human naïve CD4+ T cells were labeled with CellTraceViolet (CTV) and activated in Ctrl medium or in L-Arg medium or in medium supplemented with 3 mM D-arginine or 3 mM L-arginine together with 3 mM L-lysine. Cell divisions were monitored at 48 h and 72 h by flow cytometry. (B) CTV-labeled CD4+ T cells were activated in normal medium or L-Arg medium and the dilution of CTV was measured over time by flow cytometry. n=5 from two donors. (C) 3H-L-arginine uptake by 3 day-activated CD4+ T cells during a 15 minutes pulse. Where indicated, 3 mM L-arginine, D-arginine or L-lysine was added to the culture medium as a competitive uptake inhibitor. n=7 for control, n=9 for L-Arg, n=5 for D-Arg, and n=9 for L-Lys. Bars represent the s.e.m.

With `N=C(N)NCCC[C@H](N)C(=O)O` [L-arginine] the onset of proliferation (3 mM in medium) was “slightly delayed onset” and the “doubling rates once proliferation started” value (L-arginine-supplemented medium) was “comparable to controls”.
